According to patent US4468399A, “2-[2-(2-Aminoalkyl-4-thiazolylmethylthio)alkyl]-amino-5-substituted-4-pyr imidones” (Eli Lilly and Company, priority 1983, dated 1984):

Legend:
[1] = molecular target: T1, H2 receptor (Rattus norvegicus, UniProt P25102); experiment: H2 receptor blocking activity, histamine-induced relaxation of isolated rat uterine strips; type: cell-based, rat (female albino rats); settings: antagonist 10^-5 molar, 30 minutes, dissociation constant from dose ratio of histamine ED50; read-out: -logKb (converted)
T1 construct: uterine horns removed therefrom and suspended at ambient temperature in isolated organ baths; from tissue; host or cells: isolated uterine horn strips of estrone-treated female albino rats
T1 sequence (P25102 whole entry): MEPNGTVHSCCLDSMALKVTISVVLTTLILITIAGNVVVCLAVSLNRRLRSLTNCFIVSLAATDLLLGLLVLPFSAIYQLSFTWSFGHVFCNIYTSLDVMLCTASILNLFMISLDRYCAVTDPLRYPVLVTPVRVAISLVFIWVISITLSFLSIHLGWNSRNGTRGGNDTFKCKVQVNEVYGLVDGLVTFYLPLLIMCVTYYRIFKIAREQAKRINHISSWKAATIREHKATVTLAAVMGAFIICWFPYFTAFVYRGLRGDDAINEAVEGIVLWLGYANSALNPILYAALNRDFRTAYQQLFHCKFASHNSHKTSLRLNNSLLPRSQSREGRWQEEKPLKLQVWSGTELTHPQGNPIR
Protocol: The following assay for H2 receptor blocking activity was employed. Female albino rats are treated with estrone 24 hours prior to the initiation of the experiment. The rats are sacrificed and the uterine horns removed therefrom and suspended at ambient temperature in isolated organ baths containing De Jalon's solution. After equilibration, the uterine strips are exposed to 50 millimole aqueous potassium chloride, which produces a sustained contraction. When the uterus is so contracted, histamine produces a dosedependent H2 receptor-mediated relaxation. A control dose-response curve to histamine is constructed on each tissue. Following thorough washout of the histamine after obtaining the control dose-response curve, each antagonist (a compound of this invention) is added for 30 minutes at a concentration of 10^-5 molar. The uterine strips are then contracted with aqueous potassium chloride in the presence of the antagonist and a second dose-response curve to histamine obtained. In the presence of a competitive antagonist, the dose-response curve to histamine is shifted in parallel to the right with no depression of the maximum relative to the control curve. The dose ratio (DR) is calculated for each concentration of antagonist by dividing the ED50 of histamine in the presence of the competitive antagonist by the control ED50 for histamine. The dissociation constant (KB) of the antagonist is calculated from the dose-ratios by the following equation: […]
Cimetidine is included as an internal standard.
In the table, column 1 gives the name of the compound under test and column 2, the -logKb value for that compound.

[2] = test system: H2 receptor; experiment: H2 receptor blocking activity, isolated bullfrog gastric mucosa, histamine-stimulated acid secretion; type: cell-based, bullfrog (Rana catesbeiana); settings: inhibition of acid secretion stimulated by 10^-5 M histamine; antagonist in serosal chamber; read-out: ED50 (the source's name)
Protocol: A second assay for H2 receptor blocking activity employs the isolated bullfrog gastric mucosa--see Warrick and Lin, Communications in Chem. Pathology and Pharmacology, 13, 149 (1976). The assay is carried out as follows: The gastric mucosa of the bullfrog (Rana catesbeiana) is separated from the musculature of the stomach and placed between a pair of Ussing chambers made of lucite. The chambers are filled with frog Ringer solution and acid secretion is stimulated by addition of histamine to the serosal side of the mucosa at a final concentration of 10^-5 M. Acid output is automatically titrated to pH 4.5. After steady response to 10^-5 M of histamine is established, the antagonist (a compound of this invention) is added to the serosal chamber and the maximal inhibition by each concentration of the H2 -antagonist is recorded. From the dose-response curve, the ED50 of the drug is calculated.
In Table 2, column 1 gives the substituent at 6 in the pyrimidone ring, column 2 the "B" group (see formula at the head of the Table), and column 3 the molar ED50.

[3] = test system: acid secretion; experiment: in vivo antisecretory assay, gastric fistula dogs, histamine-stimulated gastric secretion; settings: for recovery of acid secretions from an effective dose: after 3-4 hours; for antisecretory potency relative to cimetidine, iv route: iv infusion over 30 minute period, histamine iv infusion
Protocol: An in vivo assay for the antisecretory action of drugs on acid secretion utilizes gastric fistula dogs with a vagally innervated gastric fistula and vagally denervated Heidenthain pouch. A steady-state gastric secretion is produced by the iv infusion of histamine. The antisecretory drugs under test are given either intravenously by infusion over a 30 minute period or orally 75 min. prior to collection of gastric secretion from the fistula. In this assay, 2-[2-(2-dimethylaminomethyl-4-thiazolylmethylthio)ethyl]amino-5-(3-pyridyl)methyl-4-pyrimidone was 11X cimetidine by the iv route and 14X cimetidine orally. The 6-methyl-2-pyridyl analog was 14.4X cimetidine intravenously.

[4] = test system: H2-receptor; settings: cited from earlier work; for H2-receptor antagonist activity in words: prior art

| Structure (SMILES) | Kd [1] | IC50 [2] | also measured |
| --- | --- | --- | --- |
| CN(C)Cc1nc(CSCCNc2ncc(Cc3cccnc3)c(=O)[nH]2)cs1 [Example 1, 2-[2-(2-dimethylaminomethyl-4-thiazolylmethylthio)ethyl]amino-5-(3-pyridyl)methyl-4-pyrimidone] | 1.1 nM | 115 nM | recovery of acid secretions from an effective dose [3]: about 25%; antisecretory potency relative to cimetidine, iv route [3]: 11 X cimetidine; antisecretory potency relative to cimetidine, orally ([3]; orally 75 min. prior to collection of gastric secretion): 14 X cimetidine |
| CNC(=S)NCCCCc1cnc[nH]1 [burimamide] |  |  | H2-receptor antagonist activity in words [4]: powerful H2 -receptor antagonist |
| CN(C)Cc1nc(CSCCNc2ncc(Cc3ccncc3)c(=O)[nH]2)cs1 [Example 11, 2-[2-(2-dimethylaminomethyl-4-thiazolylmethylthio)ethyl]amino-5-(4-pyridyl)methyl-4-pyrimidone] | 12.9 nM | 196 nM |  |
| CN(C)Cc1nc(CSCCNc2ncc(Cc3ccc(O)nc3)c(=O)[nH]2)cs1 [Example 6, 2-[2-(2-dimethylaminomethyl-4-thiazolylmethylthio)ethyl]amino-5-(6-hydroxy-3-pyridyl)methyl-4-pyrimidone] |  | 252 nM |  |
| CNC(=NC#N)NCCSCc1csc(NC(=N)N)n1 [2-guanidino-4-[2-(2-cyano-3-methylguanidino)ethylthiomethyl]thiazole] |  |  | H2-receptor antagonist activity in words [4]: greatly increased activity over cimetidine |
| CN(C)Cc1nc(CSCCNc2nc(=O)c(Cc3ccc4c(c3)OCO4)c[nH]2)cs1 [Example 2, 2-[2-(2-dimethylaminomethyl-4-thiazolylmethylthio)ethyl]amino-5-[5-(1,3-benzodioxoly)]methyl-4-pyrimidone] | 4.37 nM | 11100 nM |  |
| Cc1cc(Cc2cnc(NCCSCc3csc(CN(C)C)n3)[nH]c2=O)cnc1C [Example 5, 2-[2-(2-dimethylaminomethyl-4-thiazolylmethylthio)ethyl]amino-5-(5,6-dimethyl-3-pyridyl)methyl-4-pyrimidone] | 3.89 nM | 2350 nM |  |
| COc1cc(Cc2cnc(NCCSCc3csc(CN(C)C)n3)[nH]c2=O)ccn1 [Example 7, 2-[2-(2-dimethylaminomethyl-4-thiazolylmethylthio)ethyl]amino-5-(2-methoxy-4-pyridyl)methyl-4-pyrimidone] |  | 3000 nM |  |
| Cc1cccc(Cc2c[nH]c(NCCSCc3csc(CN(C)C)n3)nc2=O)n1 [6-methyl-2-pyridyl analog] |  |  | antisecretory potency relative to cimetidine, iv route [3]: 14.4 X cimetidine |
| CN(C)Cc1nc(CSCCNc2ncc(Cc3ccnc(O)c3)c(=O)[nH]2)cs1 [Example 9, 2-[2-(2-dimethylaminomethyl-4-thiazolylmethylthio)ethyl]amino-5-(2-hydroxy-4-pyridyl)methyl-4-pyrimidone] |  | 603 nM |  |
| Cc1nc(NCCSCc2csc(CN(C)C)n2)[nH]c(=O)c1Cc1cccnc1 [Example 8, 2-[2-(2-dimethylaminomethyl-4-thiazolylmethylthio)ethyl]amino-5-(3-pyridyl)methyl-6-methyl-4-pyrimidone] |  | 2000 nM |  |
| C#CCNC(=C[N+](=O)[O-])NCCSCc1ccc(CN(C)C)o1 [1-nitro-2-(2-propynylamino)-2-(2-[(5-dimethylaminomethyl-2-furyl)methylthio]ethylamino)ethylene] |  |  | activity relative to cimetidine in a standard H2-receptor assay ([4]; U.S. Pat. No. 4,203,909): 7.45 times the activity of cimetidine |
| COc1ccc(Cc2cnc(NCCSCc3csc(CN(C)C)n3)[nH]c2=O)cn1 [Example 4, 2-[2-(2-dimethylaminomethyl-4-thiazolylmethylthio)ethyl]amino-5-(6-methoxy-3-pyridyl)methyl-4-pyrimidone] | 60.3 nM | 12600 nM |  |
| CN(C)Cc1nc(CSCCNc2ncc(Cc3ccccn3)c(=O)[nH]2)cs1 [Example 10, 2-[2-(2-dimethylaminomethyl-4-thiazolylmethylthio)ethyl]amino-5-(2-pyridyl)methyl-4-pyrimidone] | 17.4 nM | 163 nM |  |
| Cc1ccc(Cc2cnc(NCCSCc3csc(CN(C)C)n3)[nH]c2=O)cn1 [Example 3, 2-[2-(2-dimethylaminomethyl-4-thiazolylmethylthio)ethyl]amino-5-(6-methyl-3-pyridyl)methyl-4-pyrimidone] | 11.2 nM | 1350 nM |  |
| CNC(=NCCSCc1nc[nH]c1C)NC#N [cimetidine, N-cyano-N'-methyl-N"-[2-([(5-methyl-1H-imidazol-4-yl)methyl]thio)ethyl]guanidine, reference compound] |  |  | recovery of acid secretions from an effective dose [3]: ~50% |
